Test results: patent publication US20060235062A1, “Novel heterocyclic analogs of diphenylethylene compounds” (THERACOS, INC., priority 2002, published 2006)

How the values were obtained:
[1] = target: T1, PPAR-gamma (Homo sapiens, UniProt P37231); settings: Rocchi et al, Mol Cell 8:737-47, 2001; cited from earlier work
T1 sequence (P37231 1-505): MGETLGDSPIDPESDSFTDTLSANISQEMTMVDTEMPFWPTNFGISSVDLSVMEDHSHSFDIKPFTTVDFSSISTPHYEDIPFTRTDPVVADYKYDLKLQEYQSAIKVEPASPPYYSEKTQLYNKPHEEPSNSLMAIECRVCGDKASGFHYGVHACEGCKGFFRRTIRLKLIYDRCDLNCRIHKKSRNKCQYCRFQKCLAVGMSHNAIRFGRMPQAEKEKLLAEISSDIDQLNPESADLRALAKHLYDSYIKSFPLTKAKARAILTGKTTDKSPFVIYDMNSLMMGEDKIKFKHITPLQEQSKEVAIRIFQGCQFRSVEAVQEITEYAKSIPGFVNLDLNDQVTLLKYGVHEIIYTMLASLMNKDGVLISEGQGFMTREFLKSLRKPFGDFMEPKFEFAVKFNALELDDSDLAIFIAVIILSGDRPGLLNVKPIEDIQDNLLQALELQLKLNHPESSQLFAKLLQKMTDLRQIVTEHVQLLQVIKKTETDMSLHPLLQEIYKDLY

[2] = tested on: HepG2 cells; assay: Glycogen synthesis in HepG2 cells; type: cell-based
[3] = target: T2, COX-1 (Mus musculus, UniProt P22437); assay: COX-1 activity in RAW cells; type: cell-based; settings: 0.1-100 μM
T2 construct: aliquots used to determine COX-2 and COX-1 activity; endogenous in cells; host or cells: RAW (RAW 264.7) cells
T2 sequence (P22437 27-602): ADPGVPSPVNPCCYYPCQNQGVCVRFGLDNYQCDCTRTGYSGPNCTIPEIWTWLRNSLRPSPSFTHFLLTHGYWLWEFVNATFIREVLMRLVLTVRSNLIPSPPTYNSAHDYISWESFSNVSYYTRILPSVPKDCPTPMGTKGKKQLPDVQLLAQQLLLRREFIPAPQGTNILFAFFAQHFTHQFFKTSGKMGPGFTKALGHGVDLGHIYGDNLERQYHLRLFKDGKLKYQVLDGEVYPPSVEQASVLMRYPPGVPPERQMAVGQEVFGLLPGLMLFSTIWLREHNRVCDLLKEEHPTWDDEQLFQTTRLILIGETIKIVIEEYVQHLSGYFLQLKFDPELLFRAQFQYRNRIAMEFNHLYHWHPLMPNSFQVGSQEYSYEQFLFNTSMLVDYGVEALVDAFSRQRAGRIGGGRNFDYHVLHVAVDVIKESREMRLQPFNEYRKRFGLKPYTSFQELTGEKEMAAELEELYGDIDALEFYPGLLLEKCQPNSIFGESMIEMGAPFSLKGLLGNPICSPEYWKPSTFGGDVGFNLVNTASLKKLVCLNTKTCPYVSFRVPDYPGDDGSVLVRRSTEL
Procedure: (§1) After 1 hour LPS (0.1 pg/mL) was added and cells were incubated an additional 6 hours. Cell supernatant was then collected, aliquoted and frozen at −70° C., and aliquots used to determine COX-2 and COX-1 activity. Compound 11, but not rosiglitazone, inhibited the activity of COX-2 (as measured by PGE2 production in a 50 μl sample).

[4] = tested on: db/db mice; settings: db/db mice, 50 mg/kg/day orally, 14 days, FIG. 16A
[5] = tested on: NF-kB p65; assay: NF-kB p65 activation in LPS-stimulated RAW cells (ELISA); type: cell-based; settings: 10 μM, 1 μg/ml LPS 15 min, FIG. 15
[6] = tested on: 3T3-L1 fibroblasts; assay: Adipogenesis (triglyceride accumulation) in 3T3-L1 fibroblasts; settings: 3T3-L1 fibroblasts, 0.1, 1, 10 μM, no dexamethasone, insulin, IBMX, FIG. 23A
Procedure: After two days of growth in 6-well plates, cells were treated either with vehicle (0.1% DMSO) or with compounds for ten days. Fresh medium with compounds or vehicle was replenished every 48 h. Cells were washed with PBS twice and fixed in 10% formalin (Sigma) in PBS. After washing in PBS, cells were stained with freshly diluted Oil Red O in isopropanol for 1 h at room temperature. The cells were washed five times with PBS and visualized under an Olympus BH2 microscope. Quantitative accumulation of triglyceride was also measured under similar experimental conditions, except in this case cells were plated in 100-mm tissue culture dishes. Triglyceride was extracted with methanol:chloroform (2:1) mixture. […] Extracted triglyceride was measured by a colorimetric assay (GPO-Trinder, Sigma) according to manufacturer instructions.
After 14 days cells were stained with Oil Red O, counterstained with methylene blue for visual assessment (FIG. 23B) and assayed for triglyceride accumulation.

[7] = tested on: IkappaB; assay: LPS-stimulated phosphorylation of IkappaB in RAW 264.7 cells; type: cell-based; settings: RAW 264.7 cells, 3, 10 or 30, LPS plus IFN-gamma, anti-phospho-IkappaB blot
[8] = target: T3, COX-2 (Mus musculus, UniProt Q05769); assay: LPS-induced COX-2 activity in RAW cells (PGE2 production); type: cell-based; settings: 0.1-100 μM, FIG. 12
T3 sequence (Q05769 18-604): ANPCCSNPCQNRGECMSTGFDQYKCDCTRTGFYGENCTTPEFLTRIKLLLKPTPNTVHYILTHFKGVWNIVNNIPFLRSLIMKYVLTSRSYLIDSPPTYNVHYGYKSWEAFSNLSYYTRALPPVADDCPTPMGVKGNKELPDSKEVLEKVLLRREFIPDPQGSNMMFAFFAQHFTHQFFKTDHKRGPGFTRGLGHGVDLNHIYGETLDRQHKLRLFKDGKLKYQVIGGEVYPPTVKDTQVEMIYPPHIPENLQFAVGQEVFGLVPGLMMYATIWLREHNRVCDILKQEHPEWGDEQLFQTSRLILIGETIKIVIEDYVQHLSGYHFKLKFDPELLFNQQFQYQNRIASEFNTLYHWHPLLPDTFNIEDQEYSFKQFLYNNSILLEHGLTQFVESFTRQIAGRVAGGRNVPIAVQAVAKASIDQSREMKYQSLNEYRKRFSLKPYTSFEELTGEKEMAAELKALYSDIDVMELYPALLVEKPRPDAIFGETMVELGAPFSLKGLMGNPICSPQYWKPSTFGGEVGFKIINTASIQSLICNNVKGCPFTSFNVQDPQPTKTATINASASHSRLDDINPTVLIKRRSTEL
Procedure: as §1

[9] = tested on: 3T3-L1 adipocytes; assay: Glucose uptake in differentiated 3T3-L1 adipocytes; type: cell-based
Procedure: Referring to FIG. 8 glucose uptake in 3T3-L1 differentiated adipocytes was measured after treatment with the test compound. The assay was conducted according to the method of Tafuri, Endocrinology, 137, 4706-4712 (1996). The serum-starved cells were treated with the test compound for 48 hours at different concentrations, then washed and incubated in glucose-free media for 30 minutes at 37° C. Then ^14C-deoxyglucose was added and uptake was monitored for 30 minutes under incubation. After washing, the cells were lysed (0.1% SIDS) and counted.
Basal glucose uptake was measured in differentiated 3T3-L1 adipocytes following the protocol of Tafuri (6) with modifications. Briefly, 3T3-L1 fibroblasts, obtained from ATCC (Manassas, Va.), were differentiated to adipocytes by treating cells with porcine insulin (1 μg/ml for 4 days), dexamethasone (0.25 μM for first 2 days) and isobutyl methyl xanthine (IBMX, 0.5 mM for first 2 days) (all from Sigma Chemicals, St Louis, Mo.) following the protocol of Frost and Lane (7). Differentiated adipocytes were incubated in Dulbecco's Modified Eagle Medium (DMEM) containing 10% fetal bovine serum (GibcoBRL, Gaithersburg, Md.) with various concentrations of Compound 11 or vehicle (0.1% DMSO) for 48 h in 24-well plates, in triplicate. Cells were washed with phosphate buffered saline (PBS, 150 mM NaCl, 1 mM KH2PO4, 3 mM Na2HPO4; pH 7.4) and incubated in glucose-free DMEM for 2 h at 37° C. The cells were washed 3 times with Krebs Ringer Phosphate Buffer (KRP). Glucose uptake was initiated by addition of 0.25 μCi 2-^14C(U)-deoxy-D-glucose (300 μCi/mmol, American Radiolabeled Chemicals Inc., St Louis, Mo.) per well and the cells incubated for 10 min at room temperature in the presence of 0.1 mmol cold 2-deoxy-D-glucose. Finally, the cells were washed three times with ice-cold PBS containing 10 mM cold glucose, lysed with 0.5% SDS, and counted in a scintillation counter (Beckman LS6500).

SMILES	less affinity for PPAR-gamma [1]	glycogen synthesis, decrease ([2]; HepG2, 10 μM, 48 h, FIG. 25A) [fold]	increase in glycogen synthesis over baseline ([2]; HepG2, concentrations higher than 30 μM, ± SD, data not shown) [fold]	inhibition of COX-1 activity [3]	blood glucose lowering effect [4]	inhibition of the activation of NF-kB (p65) [5]	maximal triglyceride accumulated, increase over control [6] [fold]	inhibition of the phosphorylation of IkappaB [7]	inhibition of COX-2 activity (PGE2 production) [8]	effect on insulin-stimulated glucose uptake ([9]; 5 μM with increasing insulin, FIG. 20B)	% Glucose uptake 0.1 μm ([9]; 0.1 μm, average of quadruplicate ± SD)	% Glucose uptake 1.0 μm ([9]; 1.0 μm, average of quadruplicate ± SD)
CC(C)C[C@H](NC(=O)OCC1c2ccccc2-c2ccccc21)C(=O)O [FMOC-L-Leucine]	approximately 400 fold	–	–	–	–	–	–	–	–	–	–	–
CN(CCOc1ccc(CC2SC(=O)NC2=O)cc1)c1ccccn1 (stereo not drawn) [rosiglitazone, reference compound]	–	0.9	1.4±0.06	Neither compound inhibited	dramatic, comparable blood glucose lowering effects	did not inhibit	9.22	not	not	additive, not synergistic	204.2 ± 8.5 % basal of the non treated cells	214.7 ± 36.5 % basal of the non treated cells
